Data from patent publication US20030204875A1, “Novel agrobacterium-mediated plant transformation method” (priority 1999, published 2003).
Like-named read-outs stand apart in the source and are kept apart here.

Tests used:
[1] = system: T-DNA transfer to BMS cells
Experimental: Transformation of BMS suspension cells was performed following the protocol described in Table 8. For transforming kalanchoe leaves, a suspension of cells from Agrobacterium strain A281 was applied after performing mechanical wounding as described in White and Nester. The Agrobacterium strain, A136 harboring a binary vector pMON25457 (FIG. 3) was used as a negative control.
The efficiency of T-DNA delivery to BMS cells was measured by transient GUS expression post co-cultivtion as well as by staining GUS positive colonies appearing on a single piece of filter 4 weeks after co-culture.
During pre-induction, AgNO3 was added at two different levels (20 ? M and 40 ? M final concentration) to the pre-induction medium. The final optical density prior to the induction was adjusted to A660 (OD 0.2). Agrobacterium cells were pre-induced for 15 hours. Measurement of the optical density (measure of growth) was taken at the end of pre-induction, just prior to transformation. Agrobacterium cells pre-induced in the absence of AgNO3 were used as a control.

[2] = system: Agrobacterium tumefaciens strain EHA 101
Experimental: Three mls of pre-induced Agrobacterium suspension (A660 OD 4.0) was added to a 6-well tissue culture plate as described. After adding the explants to the Agrobacterium suspension cells, the inoculation was performed for 15 minutes. The Agrobacterium suspension was removed and the embryos were placed on semi-solid medium with or without AgNO3 (20 ? M final concentration). All the tissues were incubated for three days in the dark. The amount of Agrobacterium present was estimated at the beginning by randomly sampling immature embryos immediately after inoculation and again at the end of the co-culture period to determine the number of attached Agrobacterium cells per immature embryo explant.

corn immature embryos = system: corn immature embryos
Experimental: (§1) The following transformation protocols included the following parameters: use of immature embryos that were pre-cultured for less than 24 h; a bacterial inoculation density >2.0 at OD660, a co-culture duration of from one to three days, the use of a higher concentration of auxin or different type of auxin/combination of growth regulators than that required during normal tissue culture, a delay period 3-7d following co-culture (with out selection pressure), no sub-culture of the original explant, a step-wise increase or decrease, depending on the crop and selection scheme and a transformation duration between 9-12 weeks.

rice immature embryos = conditions: OD660 2.0 plus 20 mM AgNO3, co-culture one day
Experimental: as §1

wheat immature embryos = conditions: OD660 4.0 plus 20 mM AgNO3, co-culture three days
Experimental: as §1

[3] = system: corn immature embryos, genotype LH198 X Hi-II; conditions: 20 μM silver nitrate
Text: Corn genotype LH198 X Hi-II was used. Corn immature embryos were isolated as described previously. Approximately 30 immature embryos were inoculated for each treatment with Agrobacterium strain ABI harboring plasmid pMON18365 for five minutes and placed on co-culture media for two to three days. There were 4 replicates per treatment. The four treatments included:
Treatment 1: absence of growth inhibiting agent (in both inoculation and co-culture media)
Treatment 2: absence of agent in inoculation media; presence of agent (20 μM silver nitrate) in co-culture media.
Treatment 3: presence of agent (20 μM silver nitrate) in inoculation media; absent in co-culture media
Treatment 4: presence of agent (20 μM silver nitrate) in both inoculation and co-culture media
Within each treatment, five immature embryos were used for transient analysis. This was repeated across all reps within each treatment. The number of GUS spots was determined on both the scutellar surface (scutellar side up) as shown in Table 23 and the number of GUS spots was determined on the axis side of the embryos as shown in Table 24.

[4] = system: immature embryos of genotype (H99×Pa 91)A188
Experimental: Immature embryos of genotype (H99×Pa 91)A188 were isolated as described. […] The Agrobacterium strain was pre-induced as described and three mls of pre-induced Agrobacterium suspension (A660 OD 0.5) supplemented with 20 ? M AgNO3 was added to a 6-well tissue culture plate as described above. Inoculation was performed for 15 minutes. The Agrobacterium suspension was removed and embryos were placed on semi-solid co-culture medium containing 20 ? M AgNO3 (final concentration). All the tissues were incubated for three days in the dark. […] Control embryos were cultured in the absence of AgNO3 in all steps of the transformation process. Transformation efficiency was calculated based on the number of embryos producing paromomycin resistant calli.

[5] = system: IE-derived callus, genotype (H99×Pa 91)A188; conditions: 50 μM in co-culture medium; three weeks after the transformation
Experimental: Immature embryos of genotype (H99×Pa 91)A188 were isolated as described. […] The Agrobacterium strain was pre-induced as described. The inoculation was performed using a concentration of A660 OD 4.0 for 15 minutes as described. Post inoculation, Agrobacterium suspension was removed and embryos were placed on different semi-solid co-culture media supplemented with various bacteriocidal compounds. All the tissues were incubated for three days in the dark. The transformation protocol followed was as described previously (corn IE transformation) except that the 1st selection with 50 mg/L Paromomycin was replaced with 25 mg/L Paromomycin for 2 weeks and 50 mg/L Paromomycin for 2 additional weeks. Transformation efficiency was calculated based on the number of embryos producing nptII positive plants as determined by a leaf bleach assay as described earlier. Three weeks after the transformation, the quality and growth characteristics of IE-derived callus co-cultured in the presence of different growth inhibiting agents.

[6] = EHA 101:pMON25457 pre-induced with 20 μM AgNO3
[7] = EHA 101:pMON25457 pre-induced with 40 μM AgNO3

## O=[N+]([O-])[O-].[Ag+] [AgNO3, silver nitrate]
[1]; Agrobacterium cells treated with AgNO3 during pre-induction
  Stable transformants obtained: no stable transformants
[1]; [6]
  Average # of GUS positive colonies/filter paper: 0
  Results (T-DNA transfer): no transfer
[1]; [7]
  Average # of GUS positive colonies/filter paper: 0
  Results (T-DNA transfer): no transfer
[2]; 20 μM AgNO3, three days co-culture
  Effect on growth of Agrobacterium during co-culture: significantly inhibited
[2]; 3d co-culture plus 20 μM AgNO3, versus 0d
  Results (fold reduction of Agrobacterium colonies/explant): 30 fold reduction
[2]; 3d co-culture plus 20 μM AgNO3, 0d value 3 × 10^5 CFU
  Average # of Agrobacterium Colonies/Explant: 1.0 × 10^4 CFU
Corn immature embryos; OD660 2.0 plus 20 μM AgNO3, co-culture three days
  Transformation (%): 18%
Corn immature embryos; OD660 4.0 plus 20 μM AgNO3, co-culture three days
  Transformation (%): 8%
Rice immature embryos
  Transformation (%): 23%
Wheat immature embryos
  Transformation (%): 4%
[3]; Treatment 2 (inoculation)
  Average # GUS spots/embryo (axis): 40.8
  Average # GUS spots/embryo (scutellar surface): 82.5
[3]; Treatment 3 (co-culture)
  Average # GUS spots/embryo (axis): 3.8
  Average # GUS spots/embryo (scutellar surface): 81.8
[3]; Treatment 4 (both)
  Average # GUS spots/embryo (axis): 8.4
  Average # GUS spots/embryo (scutellar surface): 58.9
[4]; 5d 20 μM AgNO3: present during inoculation and 5 day delay, not during 3 day co-culture
  % Transformation: 7.8 (4/51) %
[4]; 8d 20 μM AgNO3: present during inoculation, 3 day co-culture and 5 day delay
  % Transformation: 9.0 (5/55) %
[5]
  Culture response (callus quality) on co-culture media: embryogenically the most competent callus
